PubChem BioAssay AID1508612

Assay: passive permeability, PAMPA, ADME assay (AID 1508612)
Conditions: pH 7.4, 30.0 min, 50.0 µM

SMILES	Papp
CN(C)CCNC(=O)c1nc(-c2ccccc2)cc2[nH]ccc12	838 ×10⁻⁶ cm/s
O=C(c1nc(-c2cccnc2)c2ccccn12)N1CCOCC1	206 ×10⁻⁶ cm/s
CC1CCC(n2c3cnccc3c3cnc(Nc4ccc5c(n4)CCN(C(=O)CO)C5)nc32)CC1 (centres undefined)	135 ×10⁻⁶ cm/s
CCOc1cc2ncc(C#N)c(Nc3ccc(OCc4ccccn4)c(Cl)c3)c2cc1NC(=O)C=CCN(C)C	< 1 ×10⁻⁶ cm/s
CN(Cc1ccccc1)C(=O)C1CCN(Cc2cccc3ccccc23)CC1	> 1000 ×10⁻⁶ cm/s
Fc1cccc(CNc2nc(-c3ccccc3C(F)(F)F)nc3ccccc23)c1	315 ×10⁻⁶ cm/s
O=C(Cc1ccc(Cl)c(Cl)c1)Nc1ccc(S(=O)(=O)Nc2cccc(O)c2)cc1	15.6 ×10⁻⁶ cm/s
CCOc1ccccc1N1CC(c2nc3ccccc3n2CCOc2ccc(C(C)(C)C)cc2)CC1=O (centres undefined)	793 ×10⁻⁶ cm/s
Cc1csc2nc(-c3cccc(NC(=O)c4cccc(F)c4)c3)cn12	> 1000 ×10⁻⁶ cm/s
COc1cccc(CNc2ccc(S(=O)(=O)Nc3cccs3)cc2)c1O	572 ×10⁻⁶ cm/s
COc1cc2ncnc(Nc3ccc(Oc4ccccc4)cc3)c2cc1OC	> 1000 ×10⁻⁶ cm/s
O=c1c2c([nH]c3ccc(Br)cc13)CCCC2	62.4 ×10⁻⁶ cm/s
O=C1CCCCc2cc(O)c(O)cc21	20.9 ×10⁻⁶ cm/s
CCOC(=O)c1ccc2c(c1)c(C(C)=O)c(C)n2-c1ccc(OC)cc1	> 1000 ×10⁻⁶ cm/s
CC(C)c1ccccc1-c1ncc(F)c(NCc2ccc(-c3cccnc3)s2)n1	> 1000 ×10⁻⁶ cm/s
COc1ccccc1OCCNCC(O)COc1cccc2[nH]c3ccccc3c12 (centres undefined)	> 1000 ×10⁻⁶ cm/s
Nc1nc(Nc2ccc(S(N)(=O)=O)cc2)n(C(=S)Nc2c(F)cccc2F)n1	6.07 ×10⁻⁶ cm/s
CC1=C(C(=O)Nc2nncs2)C(c2nn(C)cc2Cl)N=C(Nc2nc3ccccc3o2)N1 (centres undefined)	> 1000 ×10⁻⁶ cm/s
O=C(c1cccs1)c1nonc1C(=O)c1cccs1	806 ×10⁻⁶ cm/s
COc1cc([C@@H](CC(=O)O)c2ccc(C)c(CN3C[C@@H](C)Oc4ccccc4S3(=O)=O)c2)cc2nnn(C)c12	2.9 ×10⁻⁶ cm/s
CCNC(=O)Nc1ncc(-c2cc(-c3c(C)cc(OC)cc3C)nc(-c3cnccn3)n2)s1	762 ×10⁻⁶ cm/s
CCN(C(=O)C(NS(=O)(=O)c1ccc(Br)s1)c1ccccc1)c1ccc(C)c(C)c1 (centres undefined)	392 ×10⁻⁶ cm/s
NC(=O)c1ccc(-c2nc3c([nH]2)CN(C(=O)CN2CCOCC2)CC3)cc1	2.6 ×10⁻⁶ cm/s
O=C(Cc1ccc(Cl)cc1)Nc1cnccc1C(=O)O	7 ×10⁻⁶ cm/s
O=C(Nc1ccc(-c2nc3cc(NC(=O)c4ccccc4Cl)ccc3o2)cc1)c1ccccc1Cl	176 ×10⁻⁶ cm/s
O=C(O)c1ccnc(-c2cc(C(=O)NCCc3ccccc3)ccn2)c1	< 1 ×10⁻⁶ cm/s
COc1cccc(CNc2ccc(S(=O)(=O)Nc3nccs3)cc2)c1	342 ×10⁻⁶ cm/s

SMILES	Papp
OCc1ccc(-c2ccc(-c3ccc(CO)s3)o2)s1	956 ×10⁻⁶ cm/s
COc1nccc(-c2nc(Nc3ccc(F)c(F)c3)c3ccccc3n2)c1OC	> 1000 ×10⁻⁶ cm/s
Fc1ccc(Nc2ccnc(-c3ccncc3)n2)cc1F	371 ×10⁻⁶ cm/s
O=C(c1ccc2ncccc2c1)N1CCc2c(nc3cc[nH]n3c2=O)C1	101 ×10⁻⁶ cm/s
CN(C)CCCN1c2ccc(O)cc2Sc2ccc(Cl)cc21	> 1000 ×10⁻⁶ cm/s
O=C(/C=C/c1cn(CC(O)CN2CCCCCC2)c2ccccc12)c1ccc(Br)cc1 (centres undefined)	931 ×10⁻⁶ cm/s
O=C(Cc1ccc(Cl)c(Cl)c1)Nc1ccc(S(=O)(=O)Nc2cncnc2)cc1	1.5 ×10⁻⁶ cm/s
COc1ccc(CCNc2ncnc3onc(C)c23)c(OC)c1	752 ×10⁻⁶ cm/s
COc1ccccc1-c1nc(NCc2cnc(C)cn2)c2ccccc2n1	> 1000 ×10⁻⁶ cm/s
COc1oc(-c2cccc3ccccc23)nc1C(=O)O	1.44 ×10⁻⁶ cm/s
Cc1ccnc(NC(=S)N2CCN(c3cccc(C(F)(F)F)c3)CC2)c1	> 1000 ×10⁻⁶ cm/s
Cc1cnc(-c2ccccc2C2COC2)nc1NCC1CCN(c2cccnc2)CC1	3.48 ×10⁻⁶ cm/s
CC(=O)Nc1ccc(N[S+](=O)([O-])c2cccc(NC(=O)c3[nH]c(C)c(C(C)=O)c3C)c2)cc1	20.6 ×10⁻⁶ cm/s
COc1ccc(Nc2nc(-c3ccncc3)nc3ccccc23)cc1F	107 ×10⁻⁶ cm/s
O=C(Nc1nc(-c2ccccc2)cs1)c1ccncc1NS(=O)(=O)c1ccc(F)c(F)c1	> 1000 ×10⁻⁶ cm/s
COc1ncccc1-c1cc2[nH]ccc2c(C(=O)NCc2c(C)cc(C)[nH]c2=O)n1	472 ×10⁻⁶ cm/s
CCOc1ccc(CCNC(=O)c2cc3sccc3n2CCN2CCOCC2)cc1OCC	> 1000 ×10⁻⁶ cm/s
COC12C(COC(N)=O)C3=C(C(=O)C(C)=C(N)C3=O)N1CC1C2N1C (centres undefined)	1.95 ×10⁻⁶ cm/s
CC1=Nc2cc(C(=O)NC3CCCC3)ccc2Sc2ccc(C)cc21	> 1000 ×10⁻⁶ cm/s
COc1cc(-c2ccnc3c2c(C)nn3-c2cccc(C(F)(F)F)c2)ccc1O	93.1 ×10⁻⁶ cm/s
CC(=O)NCCNC[C@@H]1C=C(C)[C@H](Cc2nnc(-c3ccccc3)o2)C[C@H]1C(C)C	624 ×10⁻⁶ cm/s
CC(C)c1c(-c2ccccc2)nc2c(C#N)c[nH]n2c1=O	9.91 ×10⁻⁶ cm/s
S=c1[nH]c2ccccc2n1CCc1ccccc1	126 ×10⁻⁶ cm/s
NC(=O)C1CCN(c2ncc(Br)cn2)CC1	61.5 ×10⁻⁶ cm/s
COc1cccc(-n2ncc3c2CCCC3NC(=O)c2ccccn2)c1 (centres undefined)	> 1000 ×10⁻⁶ cm/s
Cc1nc2ccc(C(=O)N3CCC4(CC3)CC(=O)c3c(cnn3C(C)C)C4)cc2[nH]1	16.5 ×10⁻⁶ cm/s
COc1ccc(C2(C(=O)N3CCC(n4cc(-c5nc(C)no5)nn4)CC3)CC2)cc1	34.9 ×10⁻⁶ cm/s
